The target of the assay is T1, SIRT1 (Homo sapiens, UniProt Q96EB6).
T1 sequence (Q96EB6 1-747): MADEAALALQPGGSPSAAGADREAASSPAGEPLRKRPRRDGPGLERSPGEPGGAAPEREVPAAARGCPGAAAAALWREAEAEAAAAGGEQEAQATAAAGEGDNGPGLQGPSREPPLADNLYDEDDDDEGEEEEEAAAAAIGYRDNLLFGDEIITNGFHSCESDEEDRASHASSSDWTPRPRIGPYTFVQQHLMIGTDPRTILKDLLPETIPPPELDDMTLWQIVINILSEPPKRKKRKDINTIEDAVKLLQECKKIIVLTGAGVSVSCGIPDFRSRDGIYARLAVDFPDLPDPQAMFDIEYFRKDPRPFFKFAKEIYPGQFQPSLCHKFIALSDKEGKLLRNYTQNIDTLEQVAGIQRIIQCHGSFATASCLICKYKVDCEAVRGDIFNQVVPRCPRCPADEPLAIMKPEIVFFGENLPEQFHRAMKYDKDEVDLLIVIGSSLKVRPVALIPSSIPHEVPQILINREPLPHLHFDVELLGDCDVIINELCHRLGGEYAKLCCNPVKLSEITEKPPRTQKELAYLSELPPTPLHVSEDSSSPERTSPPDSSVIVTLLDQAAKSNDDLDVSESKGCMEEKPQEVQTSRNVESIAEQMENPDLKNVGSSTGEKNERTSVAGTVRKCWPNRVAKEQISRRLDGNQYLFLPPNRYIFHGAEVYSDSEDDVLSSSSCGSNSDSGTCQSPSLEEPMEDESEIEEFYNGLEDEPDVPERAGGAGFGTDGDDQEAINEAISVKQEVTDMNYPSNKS
The assay is described as follows: Trp mass spectrometry assay of SIRT1 activation (deacetylation of Ac-R-H-K-K(Ac)-W-NH2 peptide, OAADPR formation). The following applies: Trp peptide 0.5 μM, 120 μM βNAD+, 10 nM SIRT1, 25 min, 25° C.; for Emax: 25 min, read-out: TRP MAX RESP (percent maximum fold activation relative to control = 100%). The format is biochemical. The text has this: Mass spectrometry based assays were used to identify modulators of SIRT1 activity. The TAMRA based assay utilized a peptide having 20 amino acid residues as follows: Ac-EE-K(biotin)-[…](Ac)NleSTEG-K(5TMR)-EE-NH2 (SEQ ID NO: 1), wherein K(Ac) is an acetylated lysine residue and Nle is a norleucine. The peptide was labeled with the fluorophore 5TMR (excitation 540 nm/emission 580 nm) at the C-terminus. The sequence of the peptide substrate was based on p53 with several modifications. In addition, the methionine residue naturally present in the sequence was replaced with the norleucine because the methionine may be susceptible to oxidation during synthesis and purification. The Trp based assay utilized a peptide having an amino acid residues as follows: Ac-R-H-K-K(Ac)-W-NH2 (SEQ ID NO: 2).
The Trp mass spectrometry assay was conducted as follows. 0.5 μM peptide substrate and 120 μM βNAD^+ were incubated with 10 nM SIRT1 for 25 minutes at 25° C. in a reaction buffer (50 mM HEPES pH 7.5, […], 1 mM DTT, 0.05% BSA). The SIRT1 protein was obtained by cloning the SirT1 gene into a T7-promoter containing vector, which was then expressed in BL21(DE3) bacterial cells and purified as described in further detail below. Test compound was added at varying concentrations to this reaction mixture and the resulting reactions were monitored. After the 25 minute incubation with SIRT1, 10 μL of 10% formic acid was added to stop the reaction. The resulting reactions were sealed and frozen for later mass spec analysis. The relative SIRT1 activity was then determined by measuring the amount of O-acetyl-ADP-ribose (OAADPR) formed (or, alternatively, the amount of deacetylated Trp peptide generated) by the NAD-dependent sirtuin deacetylation reaction in the presence of varying concentrations of the test compound versus control reactions lacking the test compound. The degree to which the test agent activated deacetylation by SIRT1 was expressed as EC1.5 (i.e., the concentration of compound required to increase SIRT1 activity by 50% over the control lacking test compound), and Percent Maximum Activation (i.e., the maximum activity relative to control (100%) obtained for the test compound).
A control for inhibition of sirtuin activity was conducted by adding 1 μL of 500 mM nicotinamide as a negative control at the start of the reaction (e.g., permits determination of maximum sirtuin inhibition). A control for activation of sirtuin activity was conducted using 10 nM of sirtuin protein, with 1 μL of DMSO in place of compound, to determine the amount of deacetylation of the substrate at a given time point within the linear range of the assay. This time point was the same as that used for test compounds and, within the linear range, the endpoint represents a change in velocity.
For the above assay, SIRT1 protein was expressed and purified as follows. The SirT1 gene was cloned into a T7-promoter containing vector and transformed into BL21(DE3). The protein was expressed by induction with 1 mM IPTG as an N-terminal His-tag fusion protein at 18° C. overnight and harvested at 30,000×g. Cells were lysed with lysozyme in lysis buffer (50 mM Tris-HCl, 2 mM Tris[2-carboxyethyl] phosphine (TCEP), 10 μM ZnCl2, 200 mM NaCl) and further treated with sonication for 10 min for complete lysis. The protein was purified over a Ni-NTA column (Amersham) and fractions containing pure protein were pooled, concentrated and run over a sizing column (Sephadex S200 26/60 global). The peak containing soluble protein was collected and run on an Ion-exchange column (MonoQ). Gradient elution (200 mM-500 mM NaCl) yielded pure protein. This protein was concentrated and dialyzed against dialysis buffer (20 mM Tris-HCl, 2 mM TCEP) overnight. The protein was aliquoted and frozen at −80° C. until further use.
Sirtuin-modulating compounds of Formula (I) that activated SIRT1 were identified using the assay described above and are shown below in Table 1. […]

Molecules are shown by their SMILES. Bounds are passed on as bounds.

On to `Cc1ccc2c(NC(=O)N3c4nc(C(=O)N[C@H](C)C(F)(F)F)ccc4N4CCC[C@H]3C4)n[nH]c2n1` [Example 43, (9S)-N10-(6-methyl-1H-pyrazolo[3,4-b]pyridin-3-yl)-N2-((R)-1,1,1-trifluoropropan-2-yl)-8,9-dihydro-6H-5,9-methanopyrido[2,3-b][1,4]diazocine-2,10(7H)-dicarboxamide], for which the Emax is no less than 150% and the “TRP Activity (EC1.5, concentration of compound required to increase SIRT1 activity by 50% over control)” value was “A (EC1.5<1 μM)”.

With `Cc1ccc2c(NC(=O)N3c4nc(C(=O)NC(CO)C(F)(F)F)ccc4N4CCC[C@H]3C4)n[nH]c2n1` (single isomer, unassigned) [Example 46], the “TRP Activity (EC1.5, concentration of compound required to increase SIRT1 activity by 50% over control)” value is “A (EC1.5<1 μM)” and the “TRP MAX RESP (percent maximum fold activation relative to control = 100%)” value is given as “A (Fold activation≥150%)”.

As for `O=C(Nc1cc(OC[C@@H](O)CO)ncn1)N1c2nc(-c3cccc(C(F)(F)F)c3)c(Cl)cc2N2CCC[C@H]1C2` [Example 86], the Emax was no less than 150% and the “TRP Activity (EC1.5, concentration of compound required to increase SIRT1 activity by 50% over control)” value was “A (EC1.5<1 μM)”.

As for `O=C(Nc1cncc(F)c1)N1c2nc(-c3ccnc(C(F)(F)F)c3)ccc2N2CCC[C@H]1C2` [Example 2, (9S)-N-(5-fluoropyridin-3-yl)-2-(2-(trifluoromethyl)pyridin-4-yl)-8,9-dihydro-6H-5,9-methanopyrido[2,3-b][1,4]diazocine-10(7H)-carboxamide], the Emax is no less than 150% and the “TRP Activity (EC1.5, concentration of compound required to increase SIRT1 activity by 50% over control)” value is “A (EC1.5<1 μM)”.

As for `Cc1cc(-c2ccc3c(n2)N(C(=O)Nc2cncc(F)c2)[C@H]2CCCN3C2)ccn1` [Example 5, (9S)-N-(5-fluoropyridin-3-yl)-2-(2-methylpyridin-4-yl)-8,9-dihydro-6H-5,9-methanopyrido[2,3-b][1,4]diazocine-10(7H)-carboxamide], the Emax is no less than 150% and the “TRP Activity (EC1.5, concentration of compound required to increase SIRT1 activity by 50% over control)” value is reported as “A (EC1.5<1 μM)”.

With `O=C(Nc1ccccn1)N1c2nc(-c3cccc(C(F)(F)F)c3)c(Cl)cc2N2CCC[C@H]1C2` [Example 63, (9S)-3-chloro-N-(pyridin-2-yl)-2-(3-(trifluoromethyl)phenyl)-8,9-dihydro-6H-5,9-methanopyrido[2,3-b][1,4]diazocine-10(7H)-carboxamide], the Emax is no less than 150% and the “TRP Activity (EC1.5, concentration of compound required to increase SIRT1 activity by 50% over control)” value is on record as “A (EC1.5<1 μM)”.

With `O=C(Nc1ccc(OC[C@H](O)CO)cn1)N1c2nc(-c3cccc(C(F)(F)F)c3)c(Cl)cc2N2CCC[C@H]1C2` [Example 87, (9S)-3-chloro-N-(5-((R)-2,3-dihydroxypropoxy)pyridin-2-yl)-2-(3-(trifluoromethyl)phenyl)-8,9-dihydro-6H-5,9-methanopyrido[2,3-b][1,4]diazocine-10(7H)-carboxamide], the Emax was no less than 150% and the “TRP Activity (EC1.5, concentration of compound required to increase SIRT1 activity by 50% over control)” value was “A (EC1.5<1 μM)”.

`Cc1ccc2c(NC(=O)N3c4nc(C(=O)N[C@H](C)C(F)(F)F)cc(C)c4N4CCC[C@H]3C4)n[nH]c2n1` [Example 47, (9S)-4-methyl-N10-(6-methyl-1H-pyrazolo[3,4-b]pyridin-3-yl)-N2-((R)-1,1,1-trifluoropropan-2-yl)-8,9-dihydro-6H-5,9-methanopyrido[2,3-b][1,4]diazocine-2,10(7H)-dicarboxamide]: the Emax is no less than 150% and the “TRP Activity (EC1.5, concentration of compound required to increase SIRT1 activity by 50% over control)” value is given as “A (EC1.5<1 μM)”.

Take `Cc1ncc(-c2ccnc(NC(=O)N3c4nc(C(=O)N[C@H](C)C(F)(F)F)c(Cl)cc4N4CCC[C@H]3C4)c2)o1` [Example 51, (9S)-3-chloro-N10-(4-(2-methyloxazol-5-yl)pyridin-2-yl)-N2-((R)-1,1,1-trifluoropropan-2-yl)-8,9-dihydro-6H-5,9-methanopyrido[2,3-b][1,4]diazocine-2,10(7H)-dicarboxamide]: the Emax was no less than 150% and the “TRP Activity (EC1.5, concentration of compound required to increase SIRT1 activity by 50% over control)” value is “A (EC1.5<1 μM)”.

`O=C(Nc1ncccn1)N1c2nc(N3CCCC(C(F)(F)F)C3)ccc2N2CCC[C@H]1C2` (single isomer, unassigned) [Example 18]: the Emax is no less than 150% and the “TRP Activity (EC1.5, concentration of compound required to increase SIRT1 activity by 50% over control)” value was “A (EC1.5<1 μM)”.

As to `O=C(Nc1ccccn1)N1c2nc(-c3ccnc(C(F)(F)F)c3)ccc2N2CCC[C@H]1C2` [Example 7, (9S)-N-(pyridin-2-yl)-2-(2-(trifluoromethyl)pyridin-4-yl)-8,9-dihydro-6H-5,9-methanopyrido[2,3-b][1,4]diazocine-10(7H)-carboxamide], the Emax is no less than 150% and the “TRP Activity (EC1.5, concentration of compound required to increase SIRT1 activity by 50% over control)” value is given as “A (EC1.5<1 μM)”.

Consider `O=C(Nc1cnc(OC[C@@H](O)CO)nc1)N1c2nc(-c3cccc(C(F)(F)F)c3)c(Cl)cc2N2CCC[C@H]1C2` [Example 72, (9S)-3-chloro-N-(2-((S)-2,3-dihydroxypropoxy)pyrimidin-5-yl)-2-(3-(trifluoromethyl)phenyl)-8,9-dihydro-6H-5,9-methanopyrido[2,3-b][1,4]diazocine-10(7H)-carboxamide], for which the Emax was no less than 150% and the “TRP Activity (EC1.5, concentration of compound required to increase SIRT1 activity by 50% over control)” value is listed as “A (EC1.5<1 μM)”.

Consider `O=C(Nc1cc(OC[C@H](O)CO)ncn1)N1c2nc(-c3cccc(C(F)(F)F)c3)c(Cl)cc2N2CCC[C@H]1C2` [Example 70, (9S)-3-chloro-N-(6-((R)-2,3-dihydroxypropoxy)pyrimidin-4-yl)-2-(3-(trifluoromethyl)phenyl)-8,9-dihydro-6H-5,9-methanopyrido[2,3-b][1,4]diazocine-10(7H)-carboxamide], for which the Emax is no less than 150% and the “TRP Activity (EC1.5, concentration of compound required to increase SIRT1 activity by 50% over control)” value is “B (EC1.5 1-25 μM)”.

In the case of `Cc1cc(-c2ccc3c(n2)N(C(=O)Nc2cccnn2)[C@H]2CCCN3C2)ccn1` [Example 14, (9S)-2-(2-methylpyridin-4-yl)-N-(pyridazin-3-yl)-8,9-dihydro-6H-5,9-methanopyrido[2,3-b][1,4]diazocine-10(7H)-carboxamide], the Emax is no less than 150% and the “TRP Activity (EC1.5, concentration of compound required to increase SIRT1 activity by 50% over control)” value is recorded as “A (EC1.5<1 μM)”.

These data come from patent US20190048016A1, “SUBSTITUTED BRIDGED UREA ANALOGS AS SIRTUIN MODULATORS” (GlaxoSmithKline Intellectual Property(No.2)Limited, priority 2014, published 2019).
